Test results: ChEMBL document CHEMBL1201862, “PubChem BioAssay data set” (2004)
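Cells were grown in 96-well plates and exposed to each compound for 48 hours at five concentrations; endpoints were interpolated linearly between bracketing concentrations, or set to the highest concentration if not reached. GI50 is the concentration that inhibits growth by half.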 The source made the active and inactive calls. Rule as the data show it: active = GI50 up to about 1.1 µM and inactive = higher.

Key:
Test in all cases: NCI-60 cell line screen, 48 h
[1] = test system: 786-0
[2] = test system: A498
[3] = test system: A549
[4] = test system: ACHN
[5] = test system: BT-549
[6] = test system: CCRF-CEM
[7] = test system: COLO 205
[8] = test system: DU-145
[9] = test system: EKVX
[10] = test system: HCC 2998
[11] = test system: HCT-116
[12] = test system: HCT-15
[13] = test system: HL-60
[14] = test system: HOP-62
[15] = test system: HOP-92
[16] = test system: HT-29
[17] = test system: Hs-578T
[18] = test system: IGROV-1
[19] = test system: K562
[20] = test system: KM12
[21] = test system: LOX IMVI
[22] = test system: M14
[23] = test system: MCF7
[24] = test system: MDA-MB-231
[25] = test system: MDA-MB-435
[26] = test system: MDA-N
[27] = test system: MOLT-4
[28] = test system: Malme-3M
[29] = test system: NCI-H226
[30] = test system: NCI-H23
[31] = test system: NCI-H460
[32] = test system: NCI-H522
[33] = test system: NCI/ADR-RES
[34] = test system: OVCAR-3
[35] = test system: OVCAR-4
[36] = test system: OVCAR-5
[37] = test system: OVCAR-8
[38] = test system: PC-3
[39] = test system: RPMI-8226
[40] = test system: RXF 393
[41] = test system: SF-268
[42] = test system: SF-295
[43] = test system: SF-539
[44] = test system: SK-MEL-28
[45] = test system: SK-MEL-2
[46] = test system: SK-MEL-5
[47] = test system: SK-OV-3
[48] = test system: SN12C
[49] = test system: SNB-19
[50] = test system: SNB-75
[51] = test system: SR
[52] = test system: SW-620
[53] = test system: T47D
[54] = test system: TK-10
[55] = test system: U-251
[56] = test system: UACC-257
[57] = test system: UACC-62
[58] = test system: UO-31
[59] = test system: CAKI-1

OCCCc1ccc2c(c1)[C@H](CO)[C@@H](c1ccc(O)cc1)O2
GI50 [1]: > 100 µM (inactive)
GI50 [2]: > 100 µM (inactive)
GI50 [3]: > 100 µM (inactive)
GI50 [4]: > 100 µM (inactive)
GI50 [5]: 20.4 µM (inactive)
GI50 [6]: 76 µM (inactive)
GI50 [7]: > 100 µM (inactive)
GI50 [8]: > 100 µM (inactive)
GI50 [9]: > 100 µM (inactive)
GI50 [10]: 16.6 µM (inactive)
GI50 [11]: > 100 µM (inactive)
GI50 [12]: > 100 µM
GI50 [13]: 78.2 µM (inactive)
GI50 [14]: > 100 µM (inactive)
GI50 [15]: > 100 µM (inactive)
GI50 [16]: > 100 µM (inactive)
GI50 [17]: 19.5 µM (inactive)
GI50 [18]: > 100 µM (inactive)
GI50 [19]: > 100 µM (inactive)
GI50 [20]: 82.4 µM (inactive)
GI50 [21]: > 100 µM (inactive)
GI50 [22]: > 100 µM (inactive)
GI50 [23]: > 100 µM (inactive)
GI50 [24]: > 100 µM (inactive)
GI50 [25]: 69.3 µM (inactive)
GI50 [26]: 87.7 µM (inactive)
GI50 [27]: 19.5 µM (inactive)
GI50 [28]: 13.8 µM (inactive)
GI50 [29]: > 100 µM (inactive)
GI50 [30]: 35.8 µM (inactive)
GI50 [31]: > 100 µM (inactive)
GI50 [32]: > 100 µM (inactive)
GI50 [33]: > 100 µM (inactive)
GI50 [34]: > 100 µM (inactive)
GI50 [35]: 16.8 µM (inactive)
GI50 [36]: > 100 µM (inactive)
GI50 [37]: > 100 µM (inactive)
GI50 [38]: 50.4 µM (inactive)
GI50 [39]: 26 µM (inactive)
GI50 [40]: > 100 µM (inactive)
GI50 [41]: > 100 µM (inactive)
GI50 [42]: > 100 µM (inactive)
GI50 [43]: > 100 µM (inactive)
GI50 [44]: 36.4 µM (inactive)
GI50 [45]: > 100 µM (inactive)
GI50 [46]: 18.6 µM (inactive)
GI50 [47]: > 100 µM (inactive)
GI50 [48]: > 100 µM (inactive)
GI50 [49]: > 100 µM (inactive)
GI50 [50]: > 100 µM (inactive)
GI50 [51]: 33.6 µM (inactive)
GI50 [52]: > 100 µM (inactive)
GI50 [53]: 39.2 µM (inactive)
GI50 [54]: > 100 µM (inactive)
GI50 [55]: > 100 µM (inactive)
GI50 [56]: 46 µM (inactive)
GI50 [57]: 51.9 µM (inactive)
GI50 [58]: 68.2 µM (inactive)

C=CCc1cc(-c2n[nH]c(=S)[nH]2)ccc1N/N=N/c1ccc(C(=O)O)cc1
GI50 [1]: > 100 µM (inactive)
GI50 [2]: > 100 µM (inactive)
GI50 [3]: > 100 µM (inactive)
GI50 [4]: 71.3 µM (inactive)
GI50 [5]: 27.2 µM (inactive)
GI50 [59]: > 100 µM (inactive)
GI50 [6]: 54 µM (inactive)
GI50 [7]: 22.6 µM (inactive)
GI50 [8]: > 100 µM (inactive)
GI50 [9]: > 100 µM (inactive)
GI50 [11]: > 100 µM (inactive)
GI50 [12]: > 100 µM
GI50 [13]: 30.8 µM (inactive)
GI50 [14]: 81.3 µM (inactive)
GI50 [15]: > 100 µM (inactive)
GI50 [16]: > 100 µM (inactive)
GI50 [17]: 44.6 µM (inactive)
GI50 [18]: 83 µM (inactive)
GI50 [19]: 49 µM (inactive)
GI50 [20]: 40.2 µM (inactive)
GI50 [21]: 74.5 µM (inactive)
GI50 [22]: > 100 µM (inactive)
GI50 [23]: 59.4 µM (inactive)
GI50 [24]: > 100 µM (inactive)
GI50 [25]: 44.8 µM (inactive)
GI50 [26]: 66.2 µM (inactive)
GI50 [27]: 32.4 µM (inactive)
GI50 [28]: 51.6 µM (inactive)
GI50 [29]: 42.4 µM (inactive)
GI50 [30]: 48.1 µM (inactive)
GI50 [32]: 34.1 µM (inactive)
GI50 [33]: > 100 µM (inactive)
GI50 [34]: 56 µM (inactive)
GI50 [35]: 44.7 µM (inactive)
GI50 [36]: > 100 µM (inactive)
GI50 [37]: 38.5 µM (inactive)
GI50 [38]: > 100 µM (inactive)
GI50 [39]: 38.5 µM (inactive)
GI50 [40]: 89.5 µM (inactive)
GI50 [41]: 49.7 µM (inactive)
GI50 [42]: 52.4 µM (inactive)
GI50 [44]: > 100 µM (inactive)
GI50 [45]: 58.1 µM (inactive)
GI50 [46]: 16.7 µM (inactive)
GI50 [47]: > 100 µM (inactive)
GI50 [48]: > 100 µM (inactive)
GI50 [49]: > 100 µM (inactive)
GI50 [50]: > 100 µM (inactive)
GI50 [51]: 45.9 µM (inactive)
GI50 [52]: > 100 µM (inactive)
GI50 [53]: 24 µM (inactive)
GI50 [54]: > 100 µM (inactive)
GI50 [55]: > 100 µM (inactive)
GI50 [56]: 76.9 µM (inactive)
GI50 [58]: > 100 µM (inactive)
